Experimental data reported in patent US10456407B2, “Combination therapy for treating cancer” (Epizyme, Inc., priority 2015, dated 2019).

Key:
SU-DHL10 cells = experiment: RT2 Glucocorticoid signaling PCR array, SU-DHL10 (SUDHL10) cell line (Table 4d); format: cell-based; settings: SUDHL10, 4 days, vs DMSO
Text: (§1) Expression levels of (A). Sestrin; (B). TNF and (C) GILZ normalized to DMSO controls for each cell line with the indicated single agent or combination.

OCI-Ly19 cells = experiment: RT2 Glucocorticoid signaling PCR array, OCI-LY19 (Table 4a, printed OCT) cell line; format: cell-based; settings: vs DMSO; for ΔΔCT, AFF1: gene AFF1; for ΔΔCT, AMPD3: gene AMPD3; for ΔΔCT, ANXA4: gene ANXA4; for ΔΔCT, CEBPA: gene CEBPA; for ΔΔCT, CREB1: gene CREB1; for ΔΔCT, CREB3: gene CREB3; for ΔΔCT, GHRHR: gene GHRHR; for ΔΔCT, GOT1: gene GOT1; for ΔΔCT, PER1: gene PER1; for ΔΔCT, RGS2: gene RGS2; for ΔΔCT, SPSB1: gene SPSB1; for ΔΔCT, TBL1XR1: gene TBL1XR1; for ΔΔCT, TNF: gene TNF; for ΔΔCT, VLDLR: gene VLDLR
Text: as §1

SMILES | ADARB1 ΔΔCT (SU-DHL10 cells) | AK2 ΔΔCT (SU-DHL10 cells) | ARIDS8 ΔΔCT (SU-DHL10 cells) | ASPH ΔΔCT (SU-DHL10 cells) | CEBPA ΔΔCT (SU-DHL10 cells) | DDIT4 ΔΔCT (SU-DHL10 cells) | H6PD ΔΔCT (SU-DHL10 cells) | LOX ΔΔCT (SU-DHL10 cells) | NR3C1 ΔΔCT (SU-DHL10 cells) | PER2 ΔΔCT (SU-DHL10 cells) | SPHK1 ΔΔCT (SU-DHL10 cells) | STAT5B ΔΔCT (SU-DHL10 cells) | TNF ΔΔCT (SU-DHL10 cells) | VDR ΔΔCT (SU-DHL10 cells) | ΔΔCT, AFF1 (OCI-Ly19 cells) | ΔΔCT, AMPD3 (OCI-Ly19 cells) | ΔΔCT, ANXA4 (OCI-Ly19 cells) | ΔΔCT, CEBPA (OCI-Ly19 cells) | ΔΔCT, CREB1 (OCI-Ly19 cells) | ΔΔCT, CREB3 (OCI-Ly19 cells) | also measured
CCN(c1cc(-c2ccc(CN3CCOCC3)cc2)cc(C(=O)NCc2c(C)cc(C)[nH]c2=O)c1C)C1CCOCC1 [Compound 44] | 0.073 | −0.101 | 0.650 | 0.296 | −1.026 | 1.444 | 1.221 | 1.164 | 0.527 | 0.441 | 0.231 | 0.027 | −0.204 | −0.714 | −0.008 | −0.654 | −0.154 | −2.891 | 0.006 | 0.057 | ΔΔCT, GHRHR (OCI-Ly19 cells): −4.040; ΔΔCT, GOT1 (OCI-Ly19 cells): −0.084; ΔΔCT, PER1 (OCI-Ly19 cells): 0.674; ΔΔCT, RGS2 (OCI-Ly19 cells): −0.968; ΔΔCT, SPSB1 (OCI-Ly19 cells): −0.097; ΔΔCT, TBL1XR1 (OCI-Ly19 cells): −0.043; ΔΔCT, TNF (OCI-Ly19 cells): −0.600; ΔΔCT, VLDLR (OCI-Ly19 cells): −0.280
C[C@]12C=CC(=O)C=C1CC[C@@H]1[C@@H]2[C@@H](O)C[C@@]2(C)[C@H]1CC[C@]2(O)C(=O)CO [Prednisolone, prednisolone] | 2.234 | −0.345 | 1.603 | 0.169 | 0.784 | −1.212 | 0.844 | −0.505 | 0.256 | −0.204 | −0.279 | 0.719 | 0.221 | −0.245 | −0.304 | −0.109 | 0.189 | 0.031 | 0.060 | −0.156 | ΔΔCT, GHRHR (OCI-Ly19 cells): −2.603; ΔΔCT, GOT1 (OCI-Ly19 cells): 0.094; ΔΔCT, PER1 (OCI-Ly19 cells): 0.263; ΔΔCT, RGS2 (OCI-Ly19 cells): 0.390; ΔΔCT, SPSB1 (OCI-Ly19 cells): 0.387; ΔΔCT, TBL1XR1 (OCI-Ly19 cells): −0.234; ΔΔCT, TNF (OCI-Ly19 cells): −0.773; ΔΔCT, VLDLR (OCI-Ly19 cells): 0.081
